Reference: patent US8119642B2, “Structurally rigid dopamine D3 receptor selective ligands and process for making them” (The United States of America as represented by the …, priority 2002, dated 2012)
Like-named read-outs stand apart in the source and are kept apart here.

Assays:
[1] = molecular target: T1, human D3 dopamine receptor (Homo sapiens, UniProt P35462); assay: Binding in cloned human D3 receptors in HEK cells; conditions: for D2/D3: ratio of D2 to D3 binding values
T1 construct: expressed in transfected cells
T1 sequence (P35462 whole entry): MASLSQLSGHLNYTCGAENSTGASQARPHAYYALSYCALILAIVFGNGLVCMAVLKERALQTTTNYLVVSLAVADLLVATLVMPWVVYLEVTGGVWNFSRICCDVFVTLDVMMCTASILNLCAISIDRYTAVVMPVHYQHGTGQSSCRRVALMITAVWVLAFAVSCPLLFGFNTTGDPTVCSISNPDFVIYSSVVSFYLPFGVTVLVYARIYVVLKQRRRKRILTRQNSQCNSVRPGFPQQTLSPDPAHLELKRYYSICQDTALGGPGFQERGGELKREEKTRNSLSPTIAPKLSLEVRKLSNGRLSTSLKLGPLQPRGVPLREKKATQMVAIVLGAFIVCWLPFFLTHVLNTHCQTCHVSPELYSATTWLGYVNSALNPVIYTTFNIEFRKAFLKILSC
From the text: (§1) Human dopamine D2-long (“D2”) and D3 ([…]) receptors were expressed in HEK cells. In brief, stably transfected HEK cells expressing the human D2-long and the D3 dopamine receptor were developed using the pIRES bicistronic expression vector (CLONTECH; Palo Alto, Calif.). […] For comparison, human dopamine D4 (“D4”) receptors were obtained from HEK 293 cells stably transfected with a PCR product o'f a human cDNA coding for the D4.4 form of the human D4 dopamine receptor.

[2] = molecular target: T2, human D2-long dopamine receptor (Homo sapiens, UniProt P14416); assay: Binding in cloned human D2 receptors in HEK cells; conditions: 125I-IABN
T2 construct: expressed in transfected cells
T2 sequence (P14416 whole entry): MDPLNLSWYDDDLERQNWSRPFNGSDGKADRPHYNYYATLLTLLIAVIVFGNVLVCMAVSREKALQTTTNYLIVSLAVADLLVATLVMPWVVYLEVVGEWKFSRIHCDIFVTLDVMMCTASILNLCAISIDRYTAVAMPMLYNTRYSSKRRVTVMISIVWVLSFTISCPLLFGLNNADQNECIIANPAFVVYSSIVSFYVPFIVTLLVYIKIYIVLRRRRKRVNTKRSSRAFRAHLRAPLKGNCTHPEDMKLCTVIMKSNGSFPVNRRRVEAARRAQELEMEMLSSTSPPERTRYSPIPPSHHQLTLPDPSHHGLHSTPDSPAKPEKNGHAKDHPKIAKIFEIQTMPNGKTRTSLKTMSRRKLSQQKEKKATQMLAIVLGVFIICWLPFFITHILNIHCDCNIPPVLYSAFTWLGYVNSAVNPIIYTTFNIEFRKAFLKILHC
From the text: as §1

[3] = molecular target: T3, D4.4 form of the human D4 dopamine receptor (Homo sapiens, UniProt P21917); assay: Binding in cloned human D4 receptors in HEK cells; conditions: cloned human D4.4 receptors in HEK 293 cells
T3 construct: expressed in transfected cells
T3 sequence (P21917 1-419): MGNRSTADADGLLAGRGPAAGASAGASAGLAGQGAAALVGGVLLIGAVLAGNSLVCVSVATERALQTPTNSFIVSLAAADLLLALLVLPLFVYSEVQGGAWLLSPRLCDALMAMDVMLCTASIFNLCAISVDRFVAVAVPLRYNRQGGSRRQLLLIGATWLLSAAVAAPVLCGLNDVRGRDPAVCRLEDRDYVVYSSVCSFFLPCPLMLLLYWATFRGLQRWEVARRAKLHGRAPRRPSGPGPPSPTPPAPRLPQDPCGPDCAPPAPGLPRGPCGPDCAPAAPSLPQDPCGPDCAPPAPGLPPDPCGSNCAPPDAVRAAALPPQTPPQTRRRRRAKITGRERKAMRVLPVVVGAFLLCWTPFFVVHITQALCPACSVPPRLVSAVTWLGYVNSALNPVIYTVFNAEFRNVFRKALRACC
Procedure: Human dopamine D2-long (“D2”) and D3 ([…]) receptors were expressed in HEK cells. In brief, stably transfected HEK cells expressing the human D2-long and the D3 dopamine receptor were developed using the pIRES bicistronic expression vector (CLONTECH; Palo Alto, Calif.). The level of expression of D2 or D3 receptors was determined to be greater than 2,000 fmoles/mg protein. For comparison, human dopamine D4 (“D4”) receptors were obtained from HEK 293 cells stably transfected with a PCR product o'f a human cDNA coding for the D4.4 form of the human D4 dopamine receptor. The density of binding sites is approximately 1000 fmol/mg protein.
Methods for performing in vitro dopamine receptor binding studies are described in Huang et al. J. Med. Chem. 44:1815-1826 (2001) and Luedtke et al. Synapse 38:438-439 (2000), the contents of which are hereby incorporated by reference. […] Therefore, ^125I-IABN appears to be a high affinity, selective antagonist at D2-like dopamine receptors.

[4] = molecular target: T4, human D4.4 dopamine receptors (Homo sapiens, UniProt P21917); conditions: HEK 293 cells; cited from earlier work
T4 construct: expressed in transfected cells; host or cells: HEK 293 cells
T4 sequence (P21917 1-419): T3 sequence (P21917 1-419)

D1a dopamine receptors = D1a dopamine receptors (Homo sapiens, UniProt P21728); conditions: cited from earlier work
Chain of D1a dopamine receptors (P21728 whole entry): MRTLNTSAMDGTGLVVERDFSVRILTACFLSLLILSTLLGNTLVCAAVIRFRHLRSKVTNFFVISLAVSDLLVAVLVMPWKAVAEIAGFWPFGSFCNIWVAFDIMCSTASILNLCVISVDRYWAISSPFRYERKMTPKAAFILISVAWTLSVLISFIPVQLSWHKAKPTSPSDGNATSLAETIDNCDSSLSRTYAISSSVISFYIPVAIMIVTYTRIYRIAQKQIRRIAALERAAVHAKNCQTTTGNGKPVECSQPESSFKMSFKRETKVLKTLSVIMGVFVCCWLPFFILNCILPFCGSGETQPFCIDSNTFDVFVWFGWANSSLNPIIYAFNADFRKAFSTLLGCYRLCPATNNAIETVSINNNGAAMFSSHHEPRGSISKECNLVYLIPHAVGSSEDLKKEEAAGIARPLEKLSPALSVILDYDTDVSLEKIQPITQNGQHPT

sigma σ2 binding sites = conditions: cited from earlier work
sigma σ1 binding sites = conditions: cited from earlier work
hD3 = molecular target: T5, hD3 (Homo sapiens, UniProt P35462); assay: D3 functional assay, stimulation of mitogenesis in CHO cells (agonist assay); assay type: cell-based; conditions: for EC50: [3H]thymidine, read-out: Agonist EC50 (nM) ± S.E.M.
T5 construct: expressed in transfected cells; host or cells: CHOp- cells, kept under G418
T5 sequence (P35462 whole entry): as the sequence (P35462 whole entry) above
Procedure: The cells were incubated at 37° C. in α-MEM with 10% FBS, 0.05% penicillin-streptomycin, and 200 μg/mL of G418. After 48 hours, the cells were rinsed twice with serum-free α-MEM and incubated for 24 hours at 37° C. In the functional assay for agonism, the medium was removed and replaced with 90 μl of serum-free α-MEM and 10 μl of test compound in sterile water; in the antagonist assay, the test compound was diluted in sterile water plus 30 nM quinpirole. After another 24-hour incubation at 37° C., 0.25 μCi of [^3H]thymidine was added to each well and the plates were further incubated for 2 hours at 37° C. The cells were then trypsinized, and the plates were filtered and counted as usual in the art. Quinpirole was run on every plate as an internal standard.

[5] = cloned human D3 receptors in HEK cells, 125I-IABN, read-out: D3 binding data

Structure (SMILES)	Ki [1, 5] [nM]	Ki [2] [nM]	further results
O=C(NC/C=C/CN1CCN(c2cccc(Cl)c2Cl)CC1)c1cccc(I)c1 [EEC 019]	3.9 ± 1.2		
O=C(NC/C=C/CN1CCN(c2cccc(Cl)c2Cl)CC1)c1ccc([N+](=O)[O-])cc1 [EEC 027]	0.6 ± 0.2		Ki [3]: 461 ± 187 nM
O=C(NC/C=C/CN1CCN(c2cccc(Cl)c2Cl)CC1)c1cccc(Cl)c1 [EEC 063]	2.1 ± 1.1		
COc1cccc(C(=O)NC/C=C/CN2CCN(c3cccc(Cl)c3Cl)CC2)c1 [EEC 069]	4 ± 1.6	56.9 ± 19.1	
COc1cc([125I])cc(C(=O)NC2CC3CCCC(C2)N3Cc2ccccc2)c1OC (stereo not drawn) [IABN]			fold lower affinity at human D4.4 than at D2 and D3 receptors [4]: 7- to 10 fold; affinity for D1a dopamine receptors (D1a dopamine receptors): low affinity; affinity for sigma σ2 binding sites (sigma σ2 binding sites): low affinity; affinity for sigma σ1 binding sites (sigma σ1 binding sites): low affinity
O=C(NCC#CCN1CCN(c2cccc(Cl)c2Cl)CC1)c1ccccc1 [JJC 2-062]	127 ± 10	491 ± 108	
O=C(NC/C=C/CN1CCN(c2cccc(Cl)c2Cl)CC1)c1ccccc1 [JJC 2-068]	0.6 ± 0.1		EC50 (hD3): > 10000 nM
O=C(NC/C=C/CN1CCN(c2cccc(Cl)c2Cl)CC1)c1ccc2c(c1)Cc1ccccc1-2 [JJC 2-071]	3.4 ± 2.9	186 ± 8	% Max Stim. ± S.E.M. (hD3): 44.1 ± 0.9%
O=C(NCC#CCN1CCN(c2cccc(Cl)c2Cl)CC1)c1cccc2c1-c1ccccc1C2 [JJC 2-077]	318 ± 32	592 ± 27	
O=C(NCC#CCN1CCN(c2cccc(Cl)c2Cl)CC1)c1ccc2c(c1)Cc1ccccc1-2 [JJC 2-078]	41.5 ± 5.4	1650 ± 692	
O=C(NC/C=C\CN1CCN(c2cccc(Cl)c2Cl)CC1)c1ccccc1 [JJC 2-083]			EC50 (hD3): > 10000 nM
O=C(NC/C=C\CN1CCN(c2cccc(Cl)c2Cl)CC1)c1ccc2c(c1)Cc1ccccc1-2 [JJC 2-085]	3.8 ± 1.4	61.1 ± 19.2	
O=C(NC/C=C/CN1CCN(c2cccc(Cl)c2Cl)CC1)c1cnc2ccccc2n1 [PG01020]		70 ± 7.6	Ki [3]: 1110 ± 555 nM
O=C(NC/C=C/CN1CCN(c2cccc(Cl)c2Cl)CC1)c1cc2ccccc2s1 [PG01030]			Ki [1]: 1.3 ± 0.5 nM
O=C(NC/C=C/CN1CCN(c2cccc(Cl)c2Cl)CC1)c1ccc(-c2ccccn2)cc1 [PG01037]		81.9 ± 20.7	Ki [3]: 505 ± 62.5 nM
O=C(NC/C=C/CN1CCN(c2cccc(Cl)c2Cl)CC1)c1ccc(-c2cccnc2)cc1 [PG01041]		63.3 ± 16.5	Ki [3]: 486 ± 157 nM
O=C(NC/C=C/CN1CCN(c2cccc(Cl)c2Cl)CC1)c1cc2ccccc2o1 [PG01055]		101 ± 16.9	

Further lines, with some results ahead:

Ki [1, 5] [nM]	Ki [2] [nM]	Structure (SMILES)	further results
4.2 ± 1.5	35.4 ± 7.6	O=C(NCC=CCN1CCN(c2cccc(Cl)c2Cl)CC1)c1ccc(I)cc1 [EEC 017, N-{4-[4-(2,3-Dichloro-phenyl)-piperazin-1-yl]-but-2-enyl}-4-iodo-benzamide]	D2/D3 [1]: 8
	34.7 ± 11.4	COc1ccc(C(=O)NC/C=C/CN2CCN(c3cccc(Cl)c3Cl)CC2)cc1 [EEC 067]	
1.6 ± 1	25 ± 10.8	O=C(NC/C=C/CN1CCN(c2cccc(Cl)c2Cl)CC1)c1ccc(Cl)cc1 [PG01007]	
	13.1 ± 5.5	O=C(NC/C=C/CN1CCN(c2cccc(Cl)c2Cl)CC1)c1ccccc1Cl [PG01009]	
	8.1 ± 2.7	O=C(NC/C=C/CN1CCN(c2cccc(Cl)c2Cl)CC1)c1ccc(F)cc1 [PG01012]	
	13.7 ± 4.8	O=C(NCC=CCN1CCN(c2cccc(Cl)c2Cl)CC1)c1ccc(O)cc1 [PG01015, N-{4-[4-(2,3-Dichloro-phenyl)-piperazin-1-yl]-but-2-enyl}-4-hydroxy-benzamide]	Ki [1]: 0.4 nM; D2/D3 [1]: 34; Ki [3]: 356 ± 26.5 nM
	12.7 ± 4.1	O=C(NC/C=C/CN1CCN(c2cccc(Cl)c2Cl)CC1)c1ccccc1I [PG01018]	
	11.2 ± 5.6	O=C(NC/C=C/CN1CCN(c2cccc(Cl)c2Cl)CC1)c1cccnc1 [PG01022]	
	7.3 ± 3.2	O=C(NC/C=C/CN1CCN(c2cccc(Cl)c2Cl)CC1)c1ccccc1O [PG01025]	
	5.3 ± 3	COc1ccccc1C(=O)NC/C=C/CN1CCN(c2cccc(Cl)c2Cl)CC1 [PG01027]	
	10.5 ± 4.5	O=C(NC/C=C/CN1CCN(c2cccc(Cl)c2Cl)CC1)c1ccccc1[N+](=O)[O-] [PG01029]	
	31.2 ± 3.1	O=C(NC/C=C/CN1CCN(c2cccc(Cl)c2Cl)CC1)c1ccccn1 [PG01034]	Ki [1]: 2 ± 0.6 nM
	17.2 ± 4.2	O=C(NC/C=C/CN1CCN(c2cccc(Cl)c2Cl)CC1)c1ccncc1 [PG01035]	
2.7 ± 0.8	25.6 ± 6.8	Nc1ccccc1C(=O)NC/C=C/CN1CCN(c2cccc(Cl)c2Cl)CC1 [PG01038]	
